“Also recorded” adds a separate entry of the source. No end group written: not given here.
What was measured:
C3a = experiment: Systemic C3a level in plasma, ELISA; format: in vivo, rat; details: 8, 12 and 24 hours after initial insult, P<0.05
Description: Systemic C1q and C5a levels were measured as follows. 100 μl of 1:5 plasma in 1×PBS was added to the wells of a plate described above and incubated overnight at 4° C. The plates were washed 3 times with PBST and blocked with NDS or NGS for one hour. Samples were probed with either 1:50 goat anti-human C1q (Complement Technology) in NDS or 1:200 mouse anti-human C5a (Human Complement Component C5a DuoSet ELISA, R&D Systems, Inc., Minneapolis, Minn.) in NGS for one hour at RT. The wells were washed and 1:500 donkey anti-goat 488 (Life Technologies) in NDS or 1:500 goat anti-mouse AF 568 (Life Technologies) in NGS was added, and incubated for one hour at RT. The wells were washed and the plate read using a Synergy HT (BioTek). Systemic C3a levels in plasma (1:20 dilution) were measured using a standard ELISA, according to the manufacturer's instructions (Rat C3a ELISA Kit, TSZ ELISA, Waltham, Mass.).

C1q = experiment: CNS C1q level in whole cell brain lysate, fluorescent immunoassay; format: in vivo, rat; details: 8, 12 and 24 hours after initial insult, P<0.05
Description: The local and systemic effects of NT, HT and PIC1 treatment on the complement cascade were measured. CNS C1q levels and systemic C1q and C5a levels were measured using a fluorescent immunoassay.
CNS C1q levels were measured as follows. 150 μg of whole cell brain lysate in 1× PBS was added to the wells of a Costar high binding, black flat bottom 96-well polystyrene microplate (Corning, Steuben County, NY) and incubated overnight at 4° C. The plates were washed 3 times with 1× PBS-0.1% Tween 20 (PBST) and blocked with 10% normal donkey serum (NDS) for one hour. A 1:50 dilution of goat anti-human C1q (Complement Technology, Inc., Tyler, Tex.) in NDS was added into the wells and incubated for one hour at room temperature (RT). After washing, a 1:500 dilution of donkey anti-goat Alexa Fluor (AF) 488 (Life Technologies, Grand Island, N.Y.) in NDS was added, and incubated for one hour at RT. Wells were then washed and blocked with 10% normal goat serum (NGS) for one hour at RT. A 1:250 dilution of mouse anti-GAPDG (Abcam, Cambridge, UK) in NGS was added into the wells and incubated for one hour at RT. Wells were washed and a 1:500 dilution of goat anti-mouse AF 568 (Life Technologies, Grand Island, N.Y.) in NGS was added to incubate for one hour at RT. The wells were washed and the plate read using a Synergy HT (BioTek, Winooski, Vt.).

T-maze test = format: in vivo, rat; details: six weeks after surgery, between study groups, pooled and separated genders
Description: No other preparation was needed. The thawed tubes were kept on ice until dosing.
The T-maze test apparatus was plastic with two 45 cm long arms, which extend at right-angles from a 57 cm long alley (see www.noldus.com/animal-behavior-research/t-maze). The arms have a width of 10 cm and were surrounded by 10 cm high walls. The test consists of two trials at an interval of five minutes, during which time the animals are returned to their home cages. During an eight minute acquisition trial, one of the short arms was closed. In a three minute test trial, rats had access to both arms and to the alley. Time spent in each of the arms and in the long alley was assessed. Cognitively healthy rats tended to spend more time in the novel arm than in the familiar one or in the alley.
In an eight minute acquisition trial, while the novel arm is blocked, each rat was lowered to the beginning of the alley arm, facing the wall, and allowed to freely explore the maze's arms (start arm (alley arm), center and familiar arm), while the novel arm was inaccessible. […]
During the three minute test trial, with all three arms accessible (the wall of the novel arm was removed), each rat was allowed to freely explore the whole maze. Time spent in each of the arms was recorded using EthoVision XT 11 automated tracking system (Noldus Information Technology).

[1] = Novel object recognition test; format: in vivo, rat; details: 8 weeks after HIE, versus HT and NT animals, P<0.05
Description: The novel object recognition test was performed at 8 weeks after HIE to test cognitive function by evaluating the differences in the exploration time of novel and familiar objects. The novel object recognition task tests for short-term, intermediate and long-term memory without the need for external motivation, reward, or punishment. Results on the test are influenced by both hippocampal and cortical injury. The test is based on the concept that when animals are exposed to a familiar and a novel object, they spend more time exploring the novel object. It is thought that the recognition of novelty requires more cognitive skills from the subject.
Rats were trained for two days prior to novel object testing. During the training sessions, the rat was allowed to explore the testing chamber, a polycarbonate box (40×40 cm) with two identical objects for three minutes. On testing day, one of the familiar objects was replaced with a novel object, made with the same material but a different shape, and allowed to explore for three minutes. Video recordings of the interactions were reviewed by blinded investigators. Object exploration was defined as the rat directing its nose toward the object at a distance of less than 2 cm. The DINOR was calculated as ((time with novel object−time with familiar object))/(total time spent with objects).

TMEM119 (microglia) = experiment: TMEM119 and Iba1/TMEM119 staining of cortex; format: in vivo, rat; details: 48 hours after injury
Description: After blocking for one hour at room temperature, tissues were incubated with 1:300 goat anti-Iba1 (Abcam), 1:250 goat anti-GFAP (Abcam), 1:500 chicken anti-NeuN (Millipore, Billerica, Mass.), or 1:100 mouse anti-NeuN (Millipore) in host appropriate blocking serum overnight at 4° C. Primary antibodies were probed with 1:500 donkey anti-goat (Abcam), goat anti-chicken (Abcam), or goat anti-mouse (Abcam) AF 488 or 568 in appropriate blocking serum for one hour at room temperature. Tissues were blocked a second time with NGS for one hour at room temperature. Samples were then probed with 1:300 mouse anti-C1q (Abcam), 1:300 rabbit anti-C9, 1:50 rabbit anti-MPO (Abcam), 1:200 rabbit anti-TMEM (Novus Bio, Centennial, Colo.), 1:100 rabbit anti-C3aR (Bioss), 1:100 Mouse anti-C5aR (Hycult), or 1:200 chicken anti-C3/C3a (Abcam) in NGS overnight at 4° C. and then with 1:500 goat anti-mouse, rabbit, or chicken (Abcam) AF 488 or 568 in NGS for one hour at room temperature.
Accordingly, a more specific microglial marker was used to differentiate microglia from infiltrated peripheral macrophages. TMEM119 is a reliable microglial marker that discriminates resident microglia from blood-derived macrophages in the brain [21].

brain infarct after HIE = details: rat, in vivo, ip, 160 mg/kg

For “IALILEPICCQERAA-dPEG24 (cysteine pairing not given here) [PIC1]”, the “C3a levels in plasma, NT animals relative to PIC1-treated animals” value (C3a) was “significantly higher”, the “whole brain C1q levels, NT animals relative to PIC1-treated animals” value (C1q) was “significantly higher” and the “T-maze: time spent in novel and familiar arms, alley, center” value (T-maze test) was “no significant differences; also recorded: No statistical significances”. The “novel object recognition: proportion of time exploring the novel object” value [1] was “significantly higher proportion of time”, the “combined Iba1/TMEM119 staining in the cortex” value (TMEM119 (microglia); versus NT and HT animals) was “almost two-fold decrease” and the “TMEM119 expression in the cortex” value (TMEM119 (microglia); versus NT brains) was “almost a three-fold decrease”. For the same substance, the “decrease in brain infarct size” value (brain infarct after HIE) was 68%.
